For this assay, the target named is T1, 5-LO (Homo sapiens, UniProt P09917).
T1 construct: release of leukotriene B4 (LTB4) in polymorphonuclear human leucocytes (PMN); endogenous in cells; host or cells: human polymorphonuclear leucocytes (PMN)
T1 sequence (P09917 1-674): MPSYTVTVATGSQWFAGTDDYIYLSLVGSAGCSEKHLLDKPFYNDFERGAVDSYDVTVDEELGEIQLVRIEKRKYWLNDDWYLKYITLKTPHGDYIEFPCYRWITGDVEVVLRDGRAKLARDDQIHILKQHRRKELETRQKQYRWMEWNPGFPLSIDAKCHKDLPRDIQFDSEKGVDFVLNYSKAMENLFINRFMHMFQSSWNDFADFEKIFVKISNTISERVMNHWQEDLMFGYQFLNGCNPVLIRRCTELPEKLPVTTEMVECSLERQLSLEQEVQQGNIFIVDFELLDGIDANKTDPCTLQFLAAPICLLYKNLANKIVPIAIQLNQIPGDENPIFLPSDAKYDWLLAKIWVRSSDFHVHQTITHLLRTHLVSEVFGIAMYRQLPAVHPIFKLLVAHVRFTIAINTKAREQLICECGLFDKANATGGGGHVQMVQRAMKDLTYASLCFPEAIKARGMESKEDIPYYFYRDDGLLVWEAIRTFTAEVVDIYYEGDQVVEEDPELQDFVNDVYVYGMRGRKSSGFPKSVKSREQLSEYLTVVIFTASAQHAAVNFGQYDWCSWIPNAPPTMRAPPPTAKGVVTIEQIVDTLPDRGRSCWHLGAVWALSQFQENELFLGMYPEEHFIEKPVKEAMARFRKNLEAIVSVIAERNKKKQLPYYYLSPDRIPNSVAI
Description: lipoxygenase inhibition: release of leukotriene B4 (LTB4) in polymorphonuclear human leucocytes (PMN) after Ca ionophore, by reverse phase HPLC. It counts as cell-based. The note with it: LTB4 release in human PMN after addition of substance and Ca ionophore; RP-HPLC. As for the experimental part:
As a measure of lipoxygenase inhibition, the release of leukotriene B4 (LTB4) in polymorphonuclear human leucocytes (PMN) after addition of substances and Ca ionophore was determined by means of reverse phase HPLC according to Borgeat, P. et al., Proc. Nat. Acad. Sci., 76, 2148-2152 (1979).

pIC50: −log10 of the molar value.

With `NC(=O)N(O)C(c1ccc(OCc2ccc3ccccc3n2)cc1)C1CCCCC1` (centres unmarked) [Example 1, N-[4-(Quinolin-2-yl-methoxy)phenyl-cyclohexyl]methyl-N-hydroxyurea], the pIC50 (commonly the IC50 on a negative log10 scale, so that one unit is a factor of ten) was 6.60. The value for `NC(=O)N(O)C(c1ccc(OCc2ccc3ccccc3n2)cc1)C1CCCC1` (centres unmarked) [Example 2, N-[4-(Quinolin-2-yl-methoxy)phenyl-cyclopentyl]methyl-N-hydroxyurea] was 5.92.
